Experimental data as given in doi:10.1101/2023.06.29.547052v1 (biorxiv, 2023).

Target: BSA (Bos taurus, UniProt P02769)
Assay: biochemical

Chain of BSA (P02769 25-607): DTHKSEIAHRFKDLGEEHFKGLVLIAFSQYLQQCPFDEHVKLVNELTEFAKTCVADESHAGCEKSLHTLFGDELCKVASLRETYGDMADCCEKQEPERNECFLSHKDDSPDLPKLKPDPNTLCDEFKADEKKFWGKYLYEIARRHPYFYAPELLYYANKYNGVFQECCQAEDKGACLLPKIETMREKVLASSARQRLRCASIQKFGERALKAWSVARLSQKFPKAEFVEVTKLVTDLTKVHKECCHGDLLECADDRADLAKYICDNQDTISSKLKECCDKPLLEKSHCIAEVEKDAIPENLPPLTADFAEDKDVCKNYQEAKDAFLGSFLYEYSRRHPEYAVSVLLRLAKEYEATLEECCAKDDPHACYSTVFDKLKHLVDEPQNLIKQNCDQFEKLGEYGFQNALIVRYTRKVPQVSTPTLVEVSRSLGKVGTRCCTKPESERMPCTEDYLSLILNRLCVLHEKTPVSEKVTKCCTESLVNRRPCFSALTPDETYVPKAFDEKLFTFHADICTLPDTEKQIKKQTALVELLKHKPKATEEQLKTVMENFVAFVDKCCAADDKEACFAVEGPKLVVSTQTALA

In the case of `C=CC1=C(C)C2=Cc3c(C=C)c(C)c4[n]3[Fe]([Cl])[n]3c(c(C)c(CCC(=O)O)c3=CC3=NC(=C4)C(C)=C3CCC(=O)O)=CC1=N2` [hemin], the Kd is reported as 1.78 ± 0.02 µM.
